In US6802957B2, “Self-referencing enzyme-based microsensor and method of use” (priority 2001, dated 2004):

System: pancreatic HIT cells (β-cell clusters)
Type: cell-based, hamster
Description: For trypsinization and splitting, trypsin-EDTA solution was added to a culture flask and incubated for 30 s while triturating with a transfer pipette. Serum was added to stop the digestive action of trypsin. Supernatant was removed after centrifugation at 1000 rpm for 2 min. Culture medium was added, and cells plated into glass bottom petri dishes (35 mm diameter, Matek, Ashland, Mass.) for incubation and subsequent observation.
Cell clusters, approximating to spheroids, appeared approximately two weeks after splitting. Their size ranged from 70 μm to 300 μm in diameter, depending on the time in culture.
A glucose microsensor was positioned adjacent to the cluster and self-referenced perpendicularly to the contour of the expected glucose gradient. The glucose sensor was self-referenced at 0.2 Hz between 60 and 80 μm (Δr of 20 μm) from the cluster surface to avoid H2O2 boundary artifacts. Flux measurements were done in HEPES-buffered solution containing 118 mM NaCl, 5.4 mM KCl, 2.4 mM CaCl2, 1.2 mM MgSO4, 1.2 mM KH2PO4, and 5 mM NaHCO3. All measurements were made with 5 mM glucose in the medium. To ensure that the apparent glucose signal was due to the glucose gradient and not the oxygen gradient, oxygen was provided by a ˜10 μm pipette located 10 μm from the cell cluster and approximately 50 μm from the glucose sensor to reverse the biological oxygen gradient. […] In situ calibration of the sensor was performed immediately after the flux measurements. Data were only accepted if sensor drift was less than ±5% over the experimental period, which was typically 30 min. All data were reported as means ±SEM unless otherwise mentioned.
The glucose sensor was self-referenced at 0.2 Hz between 60 and 80 μm (Δr of 20 μm) from the cluster surface. The aliquot of FCCP was dropped on the meniscus of the medium to minimize disturbance of the existing glucose gradient. All measurements were performed with 5 mM glucose in the bath.
Glucose metabolism was further studied with rotenone, an inhibitor of NADH-dependent respiration in mitochondria. […]

Molecule | decrease in the level of glucose consumption (10 μM rotenone, after 10 min, 5 mM glucose in bath, oxygen source present, four clusters) | glucose flux relative to the basal condition | initial increase in glucose flux
C=C(C)[C@H]1Cc2c(ccc3c2O[C@@H]2COc4cc(OC)c(OC)cc4[C@@H]2C3=O)O1 [Rotenone, rotenone] | 74±5% | – | –
trifluoromethoxy carbonylcyanide phenylhydrazine [FCCP] | – | 56±6 % of the basal condition | 93±16%
